Data from US20050123553A1, “Amyloid beta-peptide and methods of use” (priority 2003, published 2005).
Ends that are not written are not given here.

Columns and labels:
Aβ16-30-specific T cells = test: Proliferation of Aβ16-30-specific T cells with alanine/glycine-substituted peptides; type: cell-based, human; conditions: for T-cell proliferation, average cpm: 72 hr
From the text: Because the T-cell epitopes were most frequently localized to Aβ16-30, we further mapped this epitope for each of its constituent amino acids by using alanine-substituted peptides in the T-cell proliferation assay (the naturally occurring alanines at positions 21 and 30 were changed to glycines). […] Substitution of lysine-16, alanine-21, serine-26 or aspargine-27 increased T-cell proliferation by more than 2-fold (Table 4).
In this experiment, T cells specific to Aβ16-30 were stimulated in the presence of alanine/glycine substituted peptides and autologous PBMCs. T-cell proliferation was measured by [^3H]-thymidine incorporation 72 hr after stimulation. Numbers represent average cpm of each antigen concentration tested (average cpm in the absence of antigen was 911).
(§1) T-cell lines were then supplemented with 10 μg/ml IL-2 after 48 hours and every 2 days thereafter until they were completely resting. T-cell proliferation was measured 72 hours after stimulation following a 12 hr incubation with [^3H]-thymidine. Supernatants were collected 48 hr after T-cell stimulation, and antigen-induced cytokine production was measured by sandwich ELISA. Recommended pairs of antibodies (coating and detecting) for IL-10 (R&D, Minneapolis, Minn.), INF-γ. Endogen, Woburn, Mass.), IL-13 (PharMingen, (San Diego, Calif.), and TGF-β (Promega, Madison, Wis.) were used according to the manufacturer's instructions. Surface and intracellular staining was performed on Aβ-reactive T-cells after stimulation. All antibodies were purchased from BD Biosciences (San Diego, Calif.) and staining was performed according to the manufacturer's instructions.

[1] = tested on: Aβ1-42-reactive T-cell lines; test: Epitope mapping / proliferation of Aβ1-42-reactive T-cell lines; type: cell-based, human; conditions: for Distribution of Aβ T-cell epitopes: Number of T-cell lines / Distribution of Aβ T-cell epitopes: percent: lines from 24 subjects, fine mapping with 15 amino acid overlapping peptides
Experimental: Epitope specificity of these 3 T-cell lines using 5 overlapping peptides within Aβ15-42 was further investigated.
as §1

Aβ-reactive T-cell lines = test: Cytokine secretion of Aβ-reactive T-cell lines (sandwich ELISA); type: cell-based, human
Experimental: as §1

[2] = tested on: popliteal draining lymph nodes (PLN) T cells; test: Lymph node T-cell proliferation after immunization of mice with Aβ in CFA; type: cell-based, mouse; conditions: for T-cell proliferation across the peptide series Aβ7-21 to Aβ10-24: SJL mice immunized with rodent Aβ1-42; for T-cell proliferation with overlapping peptides: immunized with human Aβ1-42
[3] = 48 hr after stimulation, T-cell lines 1, 2, 3
[4] = SJL-derived lymphocyte cultures
[5] = App Tg, C57BL6, 12 days after imm.

Experimental for APP/IFN-g Tg mice: To determine whether carrying the IA^s allele is sufficient to induce T-cell activation and migration to the CNS of APP-tg mice, B6SJLF1 APP-tg mice line J20, see Methods) were immunized with Aβ10-24 in CFA followed by intravenous injection of PT at the time of immunization and 48 hr later.
APP/IFN-γ tg mice that were immunized with Aβb 10-24 were analyzed by immunohistochemistry 20 and 30 days after immunization for immune infiltrates associated with Aβ plaques.
Immunization and measurement of immune responses: Mice were immunized by footpad injection if sacrificed on day 12, for longer periods mice were injected in the flanks. Each mouse received 100 ml of antigen (1 mg/ml), emulsified in an equal volume of complete Freund's adjuvant (CFA). Mice were also injected intravenously with 150 ng pertussis toxin at the time of immunization and 48 hours later.
Immunohistochemistry and imaging: Cryosections (6 μm) from brains of APP-Tg+ mice were placed onto glass slides and fixed with ice-cold methanol for 2 min followed by 2% PFA at RT for 4 min. Sections were washed once with distilled water for 5 min and twice with PBS containing 0.05% Tween-20. Sections were then incubated for 1 hour at RT with blocking buffer (PBS containing 3% normal goat serum and 2% bovine serum albumin).

Row | Substance | T-cell proliferation, average cpm (Aβ16-30-specific T cells; Peptide 0.1 μg/ml) [cpm] | T-cell proliferation, average cpm (Aβ16-30-specific T cells; Peptide 1 μg/ml) [cpm] | T-cell proliferation, average cpm (Aβ16-30-specific T cells; Peptide 10 μg/ml) [cpm] | further results
1 | Ala 21 Gly: Aβ16-30 peptide with alanine 21 changed to glycine (KLVFFGEDVGSNKGA; Amyloid-beta protein 42; UniProt P05067 687-701, looked up, variant A21G) | 12901 | 29634 | 36448 | 
2 | Ala 30 Gly: Aβ16-30 peptide with alanine 30 changed to glycine (KLVFFAEDVGSNKGG; Amyloid-beta protein 42; UniProt P05067 687-701, looked up, variant A30G) | 2123 | 12027 | 15395 | 
3 | Asn 27 Ala: Aβ16-30 peptide with asparagine-27 substituted by alanine (KLVFFAEDVGSAKGA; Amyloid-beta protein 42; UniProt P05067 687-701, looked up, variant N27A) | 23636 | 36588 | 34983 | 
4 | Asp 23 Ala: Aβ16-30 peptide with aspartic acid-23 substituted by alanine (KLVFFAEAVGSNKGA; Amyloid-beta protein 42; UniProt P05067 687-701, looked up, variant D23A) | 1145 | 1685 | 612 | effect of substitution on T-cell proliferation (Aβ16-30-specific T cells; at all 3 concentrations used): blocked or significantly decreased
5 | Aβ1-28: overlapping N-terminal fragment of Aβ1-42, residues 1-28 |  |  |  | Distribution of Aβ T-cell epitopes: Number of T-cell lines [1]: 2; Distribution of Aβ T-cell epitopes: percent [1]: 8%; IFN-γ secretion (Aβ-reactive T-cell lines; [3]): not IFN-γ; IL-13 secretion (Aβ-reactive T-cell lines; [3]): high levels
6 | Aβ7-21: nested Aβ peptide, residues 7-21 (DSGYEVHHQKLVFFA; Amyloid-beta protein 42; UniProt P05067 678-692, looked up, fragment) |  |  |  | Distribution of Aβ T-cell epitopes: Number of T-cell lines [1]: 1; Distribution of Aβ T-cell epitopes: percent [1]: 4%; T-cell proliferation ([2]; NOD mice immunized with Aβ1-42): slight T-cell proliferation; T-cell proliferation across the peptide series Aβ7-21 to Aβ10-24 [2]: gradual increase; T-cell proliferation with overlapping peptides [2, 4]: induced T-cell proliferation
7 | Aβ8-22: Aβ peptide, residues 8-22 (SGYEVHHQKLVFFAE; Amyloid-beta protein 42; UniProt P05067 679-693, looked up, fragment) |  |  |  | T-cell proliferation across the peptide series Aβ7-21 to Aβ10-24 [2]: gradual increase
8 | Aβ13-27: nested Aβ peptide, residues 13-27 (HHQKLVFFAEDVGSN; Amyloid-beta protein 42; UniProt P05067 684-698, looked up, fragment) |  |  |  | T-cell proliferation with overlapping peptides [2, 4]: induced T-cell proliferation
9 | Aβ16-30: nested Aβ peptide, residues 16-30 (KLVFFAEDVGSNKGA; Amyloid-beta protein 42; UniProt P05067 687-701, looked up, fragment) | 1648 | 6780 | 17339 | frequency of positive T-cell lines induced [1]: highest frequency; Distribution of Aβ T-cell epitopes: Number of T-cell lines [1]: 10; Distribution of Aβ T-cell epitopes: percent [1]: 42%; Th2 response (Aβ-reactive T-cell lines): elicit a Th2 response; response compared with that induced by Aβ1-42 ([2]; 10-24 in SJL, 16-30 in C57BL6 mice): equivalent; T-cell proliferation with overlapping peptides ([2]; C57BL6 mice): induced proliferation; recall proliferation of LN-derived T cells in vitro ([2]; SJL mice immunized with human Aβ10-24): not; CD4 (cells/mm^2 ± SEM) (APP/IFN-g Tg mice; [5]): 0 cells/mm^2; CD11b (cells/mm^2 ± SEM) (APP/IFN-g Tg mice; [5]): 0 cells/mm^2
10 | Aβ19-33: nested Aβ peptide, residues 19-33 (FFAEDVGSNKGAIIG) |  |  |  | location of T-cell epitopes ([1]; T-cell line DRB1 1501/1101, 5 overlapping peptides within Aβ15-42): mainly located
11 | Aβ28-42: nested Aβ peptide, residues 28-42 (KGAIIGLMVGGVVIA; Amyloid-beta protein 42; UniProt P05067 699-713, looked up, fragment) |  |  |  | Distribution of Aβ T-cell epitopes: Number of T-cell lines [1]: 5; Distribution of Aβ T-cell epitopes: percent [1]: 20%
12 | Glu 22 Ala: Aβ16-30 peptide with glutamic acid-22 substituted by alanine (KLVFFAADVGSNKGA; Amyloid-beta protein 42; UniProt P05067 687-701, looked up, variant E22A) | 1145 | 840 | 517 | effect of substitution on T-cell proliferation (Aβ16-30-specific T cells; at all 3 concentrations used): blocked or significantly decreased
13 | Gly 25 Ala: Aβ16-30 peptide with Gly 25 substituted by alanine (KLVFFAEDVASNKGA; Amyloid-beta protein 42; UniProt P05067 687-701, looked up, variant G25A) | 2426 | 13763 | 24979 | 
14 | Gly 29 Ala: Aβ16-30 peptide with glycine-29 substituted by alanine (KLVFFAEDVGSNKAA; Amyloid-beta protein 42; UniProt P05067 687-701, looked up, variant G29A) | 622 | 3014 | 14513 | effect of substitution on T-cell proliferation (Aβ16-30-specific T cells; only at 0.1 or 1 μg/ml): inhibitory effects
15 | Leu 17 Ala: Aβ16-30 peptide with Leu 17 substituted by alanine (KAVFFAEDVGSNKGA; Amyloid-beta protein 42; UniProt P05067 687-701, looked up, variant L17A) | 2242 | 11805 | 24480 | 
16 | Lys 16 Ala: Aβ16-30 peptide with lysine-16 substituted by alanine (ALVFFAEDVGSNKGA; Amyloid-beta protein 42; UniProt P05067 687-701, looked up, variant K16A) | 5357 | 22304 | 36456 | 
17 | Lys 28 Ala: Aβ16-30 peptide with Lys 28 substituted by alanine (KLVFFAEDVGSNAGA; Amyloid-beta protein 42; UniProt P05067 687-701, looked up, variant K28A) | 5050 | 15475 | 29156 | 
18 | Phe 19 Ala: Aβ16-30 peptide with phenylalanine-19 substituted by alanine (KLVAFAEDVGSNKGA; Amyloid-beta protein 42; UniProt P05067 687-701, looked up, variant F19A) | 986 | 4354 | 17943 | effect of substitution on T-cell proliferation (Aβ16-30-specific T cells; only at 0.1 or 1 μg/ml): inhibitory effects
19 | Phe 20 Ala: Aβ16-30 peptide with phenylalanine-20 substituted by alanine (KLVFAAEDVGSNKGA; Amyloid-beta protein 42; UniProt P05067 687-701, looked up, variant F20A) | 1188 | 2239 | 4216 | effect of substitution on T-cell proliferation (Aβ16-30-specific T cells; at all 3 concentrations used): blocked or significantly decreased
20 | Ser 26 Ala: Aβ16-30 peptide with serine-26 substituted by alanine (KLVFFAEDVGANKGA; Amyloid-beta protein 42; UniProt P05067 687-701, looked up, variant S26A) | 18808 | 36287 | 38335 | 
21 | Val 18 Ala: Aβ16-30 peptide with Val 18 substituted by alanine (KLAFFAEDVGSNKGA; Amyloid-beta protein 42; UniProt P05067 687-701, looked up, variant V18A) | 7216 | 17427 | 26814 | 
22 | Val 24 Ala: Aβ16-30 peptide with valine-24 substituted by alanine (KLVFFAEDAGSNKGA; Amyloid-beta protein 42; UniProt P05067 687-701, looked up, variant V24A) | 944 | 6160 | 19869 | effect of substitution on T-cell proliferation (Aβ16-30-specific T cells; only at 0.1 or 1 μg/ml): inhibitory effects
23 | YEVHHQKLVFFAEDV [Aβ10-24] |  |  |  | Immune infiltrates in the spinal cord (APP/IFN-g Tg mice; mouse, in vivo): not observed; meningoencephalitis (APP/IFN-g Tg mice; mouse, in vivo): strong meningoencephalitis
